Like-named read-outs stand apart in the source and are kept apart here.
Key:
[1] = test system: whole blood neutrophils and monocytes (PI3K-gamma); assay: Whole Blood oxidative burst; type: cell-based; details: presence of serum, read-out: IC50 Average ± Standard Deviation
Excerpt: Neutrophils, monocytes and macrophages are key mediators of innate immunity. They release reactive oxygen species (ROS) as part of the innate immune inflammatory response. ROS production is induced by inflammatory mediators like chemokines, bacterial peptides and complement that recruit the innate immune cells to the site of inflammation. These inflammatory mediators trigger activation of PI3K-gamma and initiate a downstream signaling cascade that leads to the assembly of the complete NADPH oxidase complex at the plasma membrane generating ROS. PI3K-gamma functional activity was measured in whole blood and huffy coat neutrophils and monocytes via the generation of ROS. The cells are stimulated with TNF-alpha for 10 minutes, then with bacterial cell wall-derived chemotactic peptide, fMLP, for 20 minutes, and loaded with a non-fluorescent dye […] (DHR). ROS produced by the cells oxidizes DHR to fluorescent rhodamine causing an increase in fluorescent rhodamine content in the cells. PI3K-gamma functional activity is measured by the ability of neutrophils and monocytes to generate ROS following fMLP stimulation. Leukocytes and whole blood samples were analyzed on a BD FACSCalibur™ to quantitate cells positive for fluorescent rhodamine. Buffy coat cells generate IC50S in the absence of serum and whole blood assay generates IC50S in the presence of serum.

[2] = molecular target: T1, pregnane-X receptor (PXR) (Homo sapiens, UniProt O75469); assay: PXR activation in DPX2 cells; type: in vitro ADME
T1 construct: expressed in transfected cells; host or cells: DPX2 cells (human hepatoma cell line)
T1 sequence (O75469 whole entry): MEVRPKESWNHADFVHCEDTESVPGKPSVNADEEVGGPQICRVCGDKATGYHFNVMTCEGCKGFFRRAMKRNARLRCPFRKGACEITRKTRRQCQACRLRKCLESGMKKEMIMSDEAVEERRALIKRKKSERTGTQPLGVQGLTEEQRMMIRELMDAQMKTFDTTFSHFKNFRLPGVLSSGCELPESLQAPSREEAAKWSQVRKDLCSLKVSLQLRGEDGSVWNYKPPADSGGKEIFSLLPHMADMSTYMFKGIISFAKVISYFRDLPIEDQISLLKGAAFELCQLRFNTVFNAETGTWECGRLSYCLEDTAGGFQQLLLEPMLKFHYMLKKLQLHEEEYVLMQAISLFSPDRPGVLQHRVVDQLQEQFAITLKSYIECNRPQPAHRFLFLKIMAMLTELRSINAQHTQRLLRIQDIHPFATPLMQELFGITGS
Experimental: The potential of Compound 1 to activate the pregnane-X receptor (PXR) was evaluated over a range of six concentrations from 0.1-30 μM in DPX2 cells, a human hepatoma cell line that is stably overexpressed with the human PXR gene and a luciferase reporter gene linked to two promoters in the human CYP3A4 gene. Rifampicin was used as a positive control.

[3] = Permeability in MDCK wild-type cell line; type: in vitro ADME, canine; details: dog, MDCK-WT
Experimental: (§1) The permeability of Compound 1 was evaluated using both Caco-2 and MadinDarby canine kidney (MDCK) wild-type cell lines. Cells were exposed to drug in buffer on the apical side (measuring permeability in the A-to-B direction) or basolateral side (measuring permeability in the B-to-A direction) and incubated at 37° C. for one hour. Permeability was high in the A-to-B direction in both the MDCK and Caco-2 cell lines (33 and 18×10^−6 cm/sec, respectively).

MDCK-WT = assay: Permeability in MDCK wild-type cell line; type: in vitro ADME, canine; details: 1 μM, A > B
Experimental: as §1

[4] = Intravenous bolus pharmacokinetics; type: in vivo; details: single IV bolus; for AUC / AUC(0-inf) / clearance / half-life / Vd: in vivo; for Vd: read-out: Vss
Excerpt: Following intravenous administration of a single bolus dose, Compound 1 had low systemic clearance and a long half-life in all species tested. […] The volume of distribution was greater than the total body water, indicating distribution of Compound 1 to tissues.

CYP1A2 = CYP1A2 (Homo sapiens, UniProt P05177); assay: Inhibition of CYP Enzymes in Human Liver Microsomes; type: in vitro ADME; set-up: from tissue; host or cells: human liver microsomes; details: CYP1A2, 30 μM Phenacetin
CYP1A2, sequence (P05177 whole entry): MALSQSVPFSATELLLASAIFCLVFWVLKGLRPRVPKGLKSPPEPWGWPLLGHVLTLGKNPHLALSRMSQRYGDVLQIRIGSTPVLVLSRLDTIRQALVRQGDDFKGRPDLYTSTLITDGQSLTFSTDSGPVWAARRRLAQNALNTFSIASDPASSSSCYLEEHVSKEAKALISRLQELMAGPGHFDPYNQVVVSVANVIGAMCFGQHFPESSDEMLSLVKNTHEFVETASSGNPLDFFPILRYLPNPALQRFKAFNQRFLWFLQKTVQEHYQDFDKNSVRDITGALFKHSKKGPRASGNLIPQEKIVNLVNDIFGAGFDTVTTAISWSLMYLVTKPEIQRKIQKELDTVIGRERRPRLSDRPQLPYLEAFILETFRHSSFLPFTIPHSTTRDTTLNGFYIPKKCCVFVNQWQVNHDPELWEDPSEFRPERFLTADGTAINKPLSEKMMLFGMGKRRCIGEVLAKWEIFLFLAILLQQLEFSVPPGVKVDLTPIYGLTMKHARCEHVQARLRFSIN
Experimental: (§2) Inhibition assays were conducted with selective CYP probes for each CYP enzyme at specific concentrations of substrate (close to its dissociation constant (Km) value). Compound 1 was a moderate inhibitor of CYP 1A2, 2B6 and 2C8; […]

CYP2B6 = CYP2B6 (Homo sapiens, UniProt P20813); assay: as above; type: in vitro ADME; set-up: from tissue; host or cells: human liver microsomes; details: CYP2B6, 100 μM Bupropion
CYP2B6, sequence (P20813 whole entry): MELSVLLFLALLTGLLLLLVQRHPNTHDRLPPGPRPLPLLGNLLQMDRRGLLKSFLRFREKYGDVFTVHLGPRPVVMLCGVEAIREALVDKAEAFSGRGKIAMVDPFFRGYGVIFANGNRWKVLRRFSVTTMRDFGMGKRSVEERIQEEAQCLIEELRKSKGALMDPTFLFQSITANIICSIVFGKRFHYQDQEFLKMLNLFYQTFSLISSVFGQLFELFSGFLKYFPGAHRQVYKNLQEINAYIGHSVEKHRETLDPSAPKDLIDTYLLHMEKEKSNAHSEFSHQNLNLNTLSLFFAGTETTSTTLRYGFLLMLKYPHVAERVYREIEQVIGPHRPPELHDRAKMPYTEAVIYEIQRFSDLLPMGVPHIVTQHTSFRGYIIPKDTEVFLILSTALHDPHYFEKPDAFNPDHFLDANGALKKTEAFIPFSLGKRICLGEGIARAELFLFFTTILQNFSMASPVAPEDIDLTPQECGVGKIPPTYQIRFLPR
Experimental: as §2

CYP2C19 = CYP2C19 (Homo sapiens, UniProt P33261); assay: as above; type: in vitro ADME; set-up: from tissue; host or cells: human liver microsomes; details: CYP2C19, 30 μM S-Mephenytoin
CYP2C19, sequence (P33261 whole entry): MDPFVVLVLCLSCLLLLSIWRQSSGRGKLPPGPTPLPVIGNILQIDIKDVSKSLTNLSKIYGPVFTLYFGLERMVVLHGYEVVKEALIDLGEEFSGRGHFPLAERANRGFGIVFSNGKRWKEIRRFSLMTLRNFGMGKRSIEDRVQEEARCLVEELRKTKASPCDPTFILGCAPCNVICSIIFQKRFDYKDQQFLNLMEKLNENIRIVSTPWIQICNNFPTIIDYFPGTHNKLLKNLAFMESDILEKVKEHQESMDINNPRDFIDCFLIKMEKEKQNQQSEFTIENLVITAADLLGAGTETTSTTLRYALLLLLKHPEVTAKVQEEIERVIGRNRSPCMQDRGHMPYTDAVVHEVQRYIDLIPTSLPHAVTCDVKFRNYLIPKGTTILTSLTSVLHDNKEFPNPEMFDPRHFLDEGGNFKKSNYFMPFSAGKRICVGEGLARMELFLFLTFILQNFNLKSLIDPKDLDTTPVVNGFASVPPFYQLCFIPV
Experimental: as §2

CYP2C8 = CYP2C8 (Homo sapiens, UniProt P10632); assay: as above; type: in vitro ADME; set-up: from tissue; host or cells: human liver microsomes; details: CYP2C8, 2.5 μM Paclitaxel
CYP2C8, sequence (P10632 whole entry): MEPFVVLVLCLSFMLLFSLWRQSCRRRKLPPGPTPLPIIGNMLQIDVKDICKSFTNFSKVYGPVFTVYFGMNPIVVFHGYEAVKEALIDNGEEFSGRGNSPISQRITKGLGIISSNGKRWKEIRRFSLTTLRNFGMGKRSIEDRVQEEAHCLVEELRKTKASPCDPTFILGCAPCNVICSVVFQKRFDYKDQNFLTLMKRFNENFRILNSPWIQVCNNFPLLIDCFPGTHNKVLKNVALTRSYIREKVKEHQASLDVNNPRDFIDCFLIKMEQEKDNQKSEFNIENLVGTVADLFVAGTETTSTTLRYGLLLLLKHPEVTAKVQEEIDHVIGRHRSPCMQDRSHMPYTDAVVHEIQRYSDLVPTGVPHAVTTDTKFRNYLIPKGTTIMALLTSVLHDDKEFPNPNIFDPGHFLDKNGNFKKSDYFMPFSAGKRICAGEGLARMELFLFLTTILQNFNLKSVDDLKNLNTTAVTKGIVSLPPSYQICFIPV
Experimental: as §2

CYP2C9 = CYP2C9 (Homo sapiens, UniProt P11712); assay: as above; type: in vitro ADME; set-up: from tissue; host or cells: human liver microsomes; details: CYP2C9, 2.5 μM Diclofenac
CYP2C9, sequence (P11712 whole entry): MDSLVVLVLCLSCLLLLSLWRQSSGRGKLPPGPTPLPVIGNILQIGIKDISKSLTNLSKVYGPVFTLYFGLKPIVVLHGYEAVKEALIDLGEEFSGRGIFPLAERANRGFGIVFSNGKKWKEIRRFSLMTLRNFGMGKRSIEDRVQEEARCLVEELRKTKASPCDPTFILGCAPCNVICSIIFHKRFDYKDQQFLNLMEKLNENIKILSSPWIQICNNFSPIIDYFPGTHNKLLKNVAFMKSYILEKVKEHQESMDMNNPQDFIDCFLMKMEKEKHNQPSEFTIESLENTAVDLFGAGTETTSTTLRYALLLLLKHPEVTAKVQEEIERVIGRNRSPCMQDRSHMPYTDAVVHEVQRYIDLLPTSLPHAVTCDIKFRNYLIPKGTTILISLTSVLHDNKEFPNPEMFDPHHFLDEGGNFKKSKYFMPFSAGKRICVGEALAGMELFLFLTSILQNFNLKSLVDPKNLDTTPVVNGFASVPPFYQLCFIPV
Experimental: as §2

CYP2D6 = CYP2D6 (Homo sapiens, UniProt P10635); assay: as above; type: in vitro ADME; set-up: from tissue; host or cells: human liver microsomes; details: CYP2D6, 10 μM Bufuralol
CYP2D6, sequence (P10635 whole entry): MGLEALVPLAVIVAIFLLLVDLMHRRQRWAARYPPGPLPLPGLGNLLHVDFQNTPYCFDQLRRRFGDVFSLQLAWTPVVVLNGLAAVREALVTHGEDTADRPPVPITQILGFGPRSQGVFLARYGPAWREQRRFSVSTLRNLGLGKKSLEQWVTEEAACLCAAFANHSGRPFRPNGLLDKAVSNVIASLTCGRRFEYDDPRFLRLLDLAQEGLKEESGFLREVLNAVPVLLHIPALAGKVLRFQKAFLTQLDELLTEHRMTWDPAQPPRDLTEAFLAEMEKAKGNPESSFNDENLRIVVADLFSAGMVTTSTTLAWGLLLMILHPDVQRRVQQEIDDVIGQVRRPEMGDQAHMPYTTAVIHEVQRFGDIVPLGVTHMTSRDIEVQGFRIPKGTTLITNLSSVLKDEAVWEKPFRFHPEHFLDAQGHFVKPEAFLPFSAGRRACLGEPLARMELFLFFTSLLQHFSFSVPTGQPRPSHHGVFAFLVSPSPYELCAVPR
Experimental: as §2

CYP3A4 = CYP3A4 (Homo sapiens, UniProt P08684); assay: as above; type: in vitro ADME; set-up: evaluated in human liver microsomes using the IC50 shift assay; from tissue; host or cells: human liver microsomes
CYP3A4, sequence (P08684 whole entry): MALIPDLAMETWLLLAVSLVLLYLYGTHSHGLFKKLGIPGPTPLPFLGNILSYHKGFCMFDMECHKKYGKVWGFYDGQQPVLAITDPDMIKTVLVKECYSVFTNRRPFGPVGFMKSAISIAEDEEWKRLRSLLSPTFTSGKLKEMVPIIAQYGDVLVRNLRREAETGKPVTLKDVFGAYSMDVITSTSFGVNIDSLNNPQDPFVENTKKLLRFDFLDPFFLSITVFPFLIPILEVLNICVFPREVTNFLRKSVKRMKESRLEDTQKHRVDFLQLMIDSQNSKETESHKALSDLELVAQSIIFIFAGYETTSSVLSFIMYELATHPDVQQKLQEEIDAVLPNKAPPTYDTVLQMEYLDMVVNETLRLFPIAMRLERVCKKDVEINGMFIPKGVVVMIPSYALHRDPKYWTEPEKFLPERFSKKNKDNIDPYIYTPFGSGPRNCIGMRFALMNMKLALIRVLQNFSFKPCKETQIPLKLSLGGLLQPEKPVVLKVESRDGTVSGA
Experimental: as §2

With Cc1cc(-c2cncc([C@@H](O)C(F)(F)F)c2)nc2c1C(=O)N(c1cnn(CC(F)F)c1)C2(C)C [Compound 1, (R)-6-(1-(2,2-difluoroethyl)-1H-pyrazol-4-yl)-4,7,7-trimethyl-2-(5-(2,2,2-trifluoro-1-hydroxyethyl)pyridin-3-yl)-6,7-dihydro-5H-pyrrolo[3,4-b]pyridin-5-one] the IC50 [1] was 0.57 µM, the “PXR activation, response relative to positive control” value ([2]; 0.1-30 μM, Rifampicin positive control) was 5% and the EC50 ([2]; PXR activation) was greater than 30 µM. The Papp A→B at 1 h, 1 μM ([3]; MDCK, A > B) was 33 ×10⁻⁶ cm/s, the recovery at 1 h, 1 μM ([3]; MDCK, A > B) was 90% and the recovery at 1 h, 1 μM ([3]; MDCK, B > A) was 93%. For the same compound, the efflux ratio at 1 h, 1 μM [3] was 1.4, the Papp B→A at 1 h, 1 μM ([3]; B > A) was 23.8 ×10⁻⁶ cm/s and the “Avg. Papp” value (MDCK-WT) was 17.55 ×10⁻⁶ cm/s. The “% HBF (hepatic blood flow)” value ([4]; Dog, 0.5 mg/kg nominal) was roughly 13%, the DN_AUCINF ([4]; Dog, 0.5 mg/kg nominal) was 4000 ng·h/mL and the “% HBF (hepatic blood flow)” value ([4]; Monkey, 0.5 mg/kg nominal) was roughly 26%. It also gave a DN_AUCINF ([4]; Monkey, 0.5 mg/kg nominal) of 1500 ng·h/mL, a DN_AUCINF ([4]; Mouse, 0.45 mg/kg nominal) of 3400 ng·h/mL and an AUC ([4]; Dog, 0.5 mg/kg nominal) of 1900 ng·h/mL. It also gave an AUC(0-inf) ([4]; Dog, 0.5 mg/kg nominal) of 2000 ng·h/mL, a clearance ([4]; Dog, 0.5 mg/kg nominal) of 5.4 mL/min/kg and a half-life ([4]; Dog, 0.5 mg/kg nominal) of 10.7 h. For the same compound, the Vd ([4]; Dog, 0.5 mg/kg nominal) was 3.9 L/kg, the AUC ([4]; Monkey, 0.5 mg/kg nominal) was 700 ng·h/mL and the AUC(0-inf) ([4]; Monkey, 0.5 mg/kg nominal) was 740 ng·h/mL. The clearance ([4]; Monkey, 0.5 mg/kg nominal) was 11.5 mL/min/kg, the half-life ([4]; Monkey, 0.5 mg/kg nominal) was 6.6 h and the Vd ([4]; Monkey, 0.5 mg/kg nominal) was 3.3 L/kg. The AUC ([4]; Mouse, 0.45 mg/kg nominal) was 1090 ng·h/mL, the AUC(0-inf) ([4]; Mouse, 0.45 mg/kg nominal) was 1530 ng·h/mL and the clearance ([4]; Mouse, 0.45 mg/kg nominal) was 4.9 mL/min/kg. It also gave a half-life ([4]; Mouse, 0.45 mg/kg nominal) of 4.3 h, a Vd ([4]; Mouse, 0.45 mg/kg nominal) of 1.8 L/kg and an IC50 (CYP1A2) of 7 µM. For the same compound, the IC50 (CYP2B6) was 4 µM, the IC50 (CYP2C19) was 21 µM and the IC50 (CYP2C8) was 7 µM. For the same compound, the IC50 (CYP2C9) was 32 µM, the IC50 (CYP2D6) was 64 µM and the IC50 (CYP3A4; CYP3A4, 2.5 μM Midazolam) was 19 µM. It also gave an IC50 (CYP3A4; CYP3A4, 50 μM Testosterone) greater than 75 µM.
